Values after ≈ are worked out from the molar mass of the structure shown.
Key:
Format in all cases: functional
Aspergillus tubingensis [1] = test: Antifungal activity against Aspergillus tubingensis isolate CM-3507 obtained from respiratory tract infection of patient after 48 hrs by EUCAST broth dilution method; conditions: isolate CM-3507, 48 h
Aspergillus foetidus [2] = test: Antifungal activity against Aspergillus foetidus isolate CM-4995 obtained from prosthesis after 48 hrs by EUCAST broth dilution method; conditions: isolate CM-4995, 48 h
Aspergillus niger [3] = test: Antifungal activity against Aspergillus niger isolate CM-3236 obtained from respiratory tract infection of patient after 48 hrs by EUCAST broth dilution method; conditions: isolate CM-3236, 48 h
Aspergillus niger [4] = test: Antifungal activity against Aspergillus niger isolate CM-5095 obtained from respiratory tract infection of patient after 48 hrs by EUCAST broth dilution method; conditions: isolate CM-5095, 48 h
Aspergillus tubingensis [5] = test: Antifungal activity against Aspergillus tubingensis isolate CM-4005 after 48 hrs by EUCAST broth dilution method; conditions: isolate CM-4005, 48 h
Aspergillus niger [6] = test: Antifungal activity against Aspergillus niger isolate CM-4213 obtained from respiratory tract infection of patient after 48 hrs by EUCAST broth dilution method; conditions: isolate CM-4213, 48 h
Aspergillus niger [7] = test: Antifungal activity against Aspergillus niger isolate CM-3641 obtained from respiratory tract infection of patient after 48 hrs by EUCAST broth dilution method; conditions: isolate CM-3641, 48 h
Aspergillus niger [8] = test: Antifungal activity against Aspergillus niger isolate CM-3551 obtained from respiratory tract infection of patient after 48 hrs by EUCAST broth dilution method; conditions: isolate CM-3551, 48 h
Aspergillus tubingensis [9] = test: Antifungal activity against Aspergillus tubingensis isolate CM-4000 after 48 hrs by EUCAST broth dilution method; conditions: isolate CM-4000, 48 h
Aspergillus tubingensis [10] = test: Antifungal activity against Aspergillus tubingensis isolate CM-5094 obtained from respiratory tract infection of patient after 48 hrs by EUCAST broth dilution method; conditions: isolate CM-5094, 48 h
Aspergillus tubingensis [11] = test: Antifungal activity against Aspergillus tubingensis isolate CM-4352 obtained from respiratory tract infection of patient after 48 hrs by EUCAST broth dilution method; conditions: isolate CM-4352, 48 h
Aspergillus niger [12] = test: Antifungal activity against Aspergillus niger isolate CM-3257 obtained from respiratory tract infection of patient after 48 hrs by EUCAST broth dilution method; conditions: isolate CM-3257, 48 h
Aspergillus tubingensis [13] = test: Antifungal activity against Aspergillus tubingensis isolate CM-4003 after 48 hrs by EUCAST broth dilution method; conditions: isolate CM-4003, 48 h
Aspergillus tubingensis [14] = test: Antifungal activity against Aspergillus tubingensis isolate CM-3125 obtained from respiratory tract infection of patient after 48 hrs by EUCAST broth dilution method; conditions: isolate CM-3125, 48 h
Aspergillus tubingensis [15] = test: Antifungal activity against Aspergillus tubingensis isolate CM-3177 obtained from respiratory tract infection of patient after 48 hrs by EUCAST broth dilution method; conditions: isolate CM-3177, 48 h
Aspergillus niger [16] = test: Antifungal activity against Aspergillus niger isolate CM-4004 obtained from after 48 hrs by EUCAST broth dilution method; conditions: isolate CM-4004, 48 h
Aspergillus tubingensis [17] = test: Antifungal activity against Aspergillus tubingensis isolate CM-4296 obtained from respiratory tract infection of patient after 48 hrs by EUCAST broth dilution method; conditions: isolate CM-4296, 48 h
Aspergillus niger [18] = test: Antifungal activity against Aspergillus niger isolate CM-3586 obtained from catheter of patient after 48 hrs by EUCAST broth dilution method; conditions: isolate CM-3586, 48 h
Aspergillus tubingensis [19] = test: Antifungal activity against Aspergillus tubingensis isolate CM-3123 obtained from respiratory tract infection of patient after 48 hrs by EUCAST broth dilution method; conditions: isolate CM-3123, 48 h
Aspergillus tubingensis [20] = test: Antifungal activity against Aspergillus tubingensis isolate CM-4899 obtained from respiratory tract infection of patient after 48 hrs by EUCAST broth dilution method; conditions: isolate CM-4899, 48 h
Aspergillus tubingensis [21] = test: Antifungal activity against Aspergillus tubingensis isolate CM-3585 after 48 hrs by EUCAST broth dilution method; conditions: isolate CM-3585, 48 h
Aspergillus tubingensis [22] = test: Antifungal activity against Aspergillus tubingensis isolate CM-4264 obtained from blood culture after 48 hrs by EUCAST broth dilution method; conditions: isolate CM-4264, 48 h
Aspergillus niger [23] = test: Antifungal activity against Aspergillus niger isolate CM-3506 obtained from respiratory tract infection of patient after 48 hrs by EUCAST broth dilution method; conditions: isolate CM-3506, 48 h
Aspergillus foetidus [24] = test: Antifungal activity against Aspergillus foetidus isolate CM-5264 obtained from respiratory tract infection of patient after 48 hrs by EUCAST broth dilution method; conditions: isolate CM-5264, 48 h
Aspergillus tubingensis [25] = test: Antifungal activity against Aspergillus tubingensis isolate CM-4897 obtained from blood culture after 48 hrs by EUCAST broth dilution method; conditions: isolate CM-4897, 48 h
Aspergillus niger [26] = test: Antifungal activity against Aspergillus niger isolate CM-3672 obtained from cutaneous layer of patient after 48 hrs by EUCAST broth dilution method; conditions: isolate CM-3672, 48 h
Aspergillus tubingensis [27] = test: Antifungal activity against Aspergillus tubingensis isolate CM-3654 obtained from blood culture after 48 hrs by EUCAST broth dilution method; conditions: isolate CM-3654, 48 h
Aspergillus niger [28] = test: Antifungal activity against Aspergillus niger isolate CM-4262 after 48 hrs by EUCAST broth dilution method Ophthalmic; conditions: isolate CM-4262, 48 h
Aspergillus tubingensis [29] = test: Antifungal activity against Aspergillus tubingensis isolate CM-4688 obtained from respiratory tract infection of patient after 48 hrs by EUCAST broth dilution method; conditions: isolate CM-4688, 48 h
Aspergillus niger [30] = test: Antifungal activity against Aspergillus niger isolate CM-3636 obtained from respiratory tract infection of patient after 48 hrs by EUCAST broth dilution method; conditions: isolate CM-3636, 48 h
Aspergillus foetidus [31] = test: Antifungal activity against Aspergillus foetidus isolate CM-4002 after 48 hrs by EUCAST broth dilution method; conditions: isolate CM-4002, 48 h
Aspergillus tubingensis [32] = test: Antifungal activity against Aspergillus tubingensis isolate CM-3810 obtained from respiratory tract infection of patient after 48 hrs by EUCAST broth dilution method; conditions: isolate CM-3810, 48 h
Aspergillus niger [33] = test: Antifungal activity against Aspergillus niger isolate CM-4316 obtained from respiratory tract infection of patient after 48 hrs by EUCAST broth dilution method; conditions: isolate CM-4316, 48 h
Aspergillus tubingensis [34] = test: Antifungal activity against Aspergillus tubingensis isolate CM-4001 after 48 hrs by EUCAST broth dilution method; conditions: isolate CM-4001, 48 h

SMILES | MIC (Aspergillus tubingensis [1]) [µg/mL] | MIC (Aspergillus foetidus [2]) [µg/mL] | MIC (Aspergillus niger [3]) [µg/mL] | MIC (Aspergillus niger [4]) [µg/mL] | MIC (Aspergillus tubingensis [5]) [µg/mL] | MIC (Aspergillus niger [6]) [µg/mL] | MIC (Aspergillus niger [7]) [µg/mL] | MIC (Aspergillus niger [8]) [µg/mL] | MIC (Aspergillus tubingensis [9]) [µg/mL] | MIC (Aspergillus tubingensis [10]) [µg/mL] | MIC (Aspergillus tubingensis [11]) [µg/mL] | MIC (Aspergillus niger [12]) [µg/mL] | MIC (Aspergillus tubingensis [13]) [µg/mL] | MIC (Aspergillus tubingensis [14]) [µg/mL] | MIC (Aspergillus tubingensis [15]) [µg/mL] | MIC (Aspergillus niger [16]) [µg/mL] | MIC (Aspergillus tubingensis [17]) [µg/mL] | MIC (Aspergillus niger [18]) [µg/mL] | MIC (Aspergillus tubingensis [19]) [µg/mL] | MIC (Aspergillus tubingensis [20]) [µg/mL] | other results
CCC(C)n1ncn(-c2ccc(N3CCN(c4ccc(OCC5COC(Cn6cncn6)(c6ccc(Cl)cc6Cl)O5)cc4)CC3)cc2)c1=O (stereo not drawn) [ITRACONAZOLE] | 0.5 (≈ 0.709 µM) | 1 (≈ 1.42 µM) | 0.5 (≈ 0.709 µM) | 0.5 (≈ 0.709 µM) | 16 (≈ 22.7 µM) | 0.14 (≈ 0.198 µM) | 0.5 (≈ 0.709 µM) | 4.75 (≈ 6.73 µM) | 1 (≈ 1.42 µM) | 0.5 (≈ 0.709 µM) | 1 (≈ 1.42 µM) | 1 (≈ 1.42 µM) | 16 (≈ 22.7 µM) | 0.5 (≈ 0.709 µM) | 1 (≈ 1.42 µM) | 1 (≈ 1.42 µM) | 0.75 (≈ 1.06 µM) | 0.5 (≈ 0.709 µM) | 11 (≈ 15.6 µM) | 1 (≈ 1.42 µM) | MIC (Aspergillus tubingensis [21]): 0.5 µg/mL (≈ 0.709 µM); MIC (Aspergillus tubingensis [22]): 0.5 µg/mL (≈ 0.709 µM); MIC (Aspergillus niger [23]): 0.5 µg/mL (≈ 0.709 µM); MIC (Aspergillus foetidus [24]): 16 µg/mL (≈ 22.7 µM); MIC (Aspergillus tubingensis [25]): 1 µg/mL (≈ 1.42 µM); MIC (Aspergillus niger [26]): 0.5 µg/mL (≈ 0.709 µM); MIC (Aspergillus tubingensis [27]): 1 µg/mL (≈ 1.42 µM); MIC (Aspergillus niger [28]): 1 µg/mL (≈ 1.42 µM); MIC (Aspergillus tubingensis [29]): 3.67 µg/mL (≈ 5.2 µM); MIC (Aspergillus niger [30]): 0.5 µg/mL (≈ 0.709 µM); MIC (Aspergillus foetidus [31]): 1 µg/mL (≈ 1.42 µM); MIC (Aspergillus tubingensis [32]): 4 µg/mL (≈ 5.67 µM); MIC (Aspergillus niger [33]): 0.5 µg/mL (≈ 0.709 µM); MIC (Aspergillus tubingensis [34]): 1 µg/mL (≈ 1.42 µM)
CC[C@@H]([C@H](C)O)n1ncn(-c2ccc(N3CCN(c4ccc(OC[C@@H]5CO[C@@](Cn6cncn6)(c6ccc(F)cc6F)C5)cc4)CC3)cc2)c1=O [POSACONAZOLE] | 0.15 (≈ 0.214 µM) | 0.16 (≈ 0.228 µM) | 0.12 (≈ 0.171 µM) | 0.12 (≈ 0.171 µM) | 0.5 (≈ 0.713 µM) | 0.03 (≈ 0.0428 µM) | 0.125 (≈ 0.178 µM) | 0.12 (≈ 0.171 µM) | 0.25 (≈ 0.357 µM) | 0.06 (≈ 0.0856 µM) | 0.25 (≈ 0.357 µM) | 0.25 (≈ 0.357 µM) | 0.25 (≈ 0.357 µM) | 0.12 (≈ 0.171 µM) | 0.25 (≈ 0.357 µM) | 0.25 (≈ 0.357 µM) | 0.19 (≈ 0.271 µM) | 0.12 (≈ 0.171 µM) | 0.25 (≈ 0.357 µM) | 0.25 (≈ 0.357 µM) | MIC (Aspergillus tubingensis [21]): 0.12 µg/mL (≈ 0.171 µM); MIC (Aspergillus tubingensis [22]): 0.12 µg/mL (≈ 0.171 µM); MIC (Aspergillus niger [23]): 0.12 µg/mL (≈ 0.171 µM); MIC (Aspergillus foetidus [24]): 0.5 µg/mL (≈ 0.713 µM); MIC (Aspergillus tubingensis [25]): 0.25 µg/mL (≈ 0.357 µM); MIC (Aspergillus niger [26]): 0.19 µg/mL (≈ 0.271 µM); MIC (Aspergillus tubingensis [27]): 0.25 µg/mL (≈ 0.357 µM); MIC (Aspergillus niger [28]): 0.25 µg/mL (≈ 0.357 µM); MIC (Aspergillus tubingensis [29]): 0.25 µg/mL (≈ 0.357 µM); MIC (Aspergillus niger [30]): 0.19 µg/mL (≈ 0.271 µM); MIC (Aspergillus foetidus [31]): 0.12 µg/mL (≈ 0.171 µM); MIC (Aspergillus tubingensis [32]): 0.12 µg/mL (≈ 0.171 µM); MIC (Aspergillus niger [33]): 0.125 µg/mL (≈ 0.178 µM); MIC (Aspergillus tubingensis [34]): 0.25 µg/mL (≈ 0.357 µM)

From ChEMBL document CHEMBL1649226, “Species identification and antifungal susceptibility patterns of species belonging to Aspergillus section Nigri” (2009)
